Target: T1, BTK (Homo sapiens, UniProt Q06187)
T1 construct: endogenous in cells; host or cells: TMD-8 cells
Assay: BTK degradation in TMD-8 cells, HTRF assay after 6 h treatment
Type: cell-based
Conditions: for DC50: IC50 (DC50) of BTK degradation; for Dmax: TMD8, maximum percentage of inhibition (degradation)
Summary of the method: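 Remaining BTK was quantified by HTRF in lysates of TMD-8 cells after 6 h exposure to an 8-point, 6-fold compound series (500× stocks in DMSO starting at 1 mM; 0.2% DMSO). Lysis 30 min, antibodies overnight at room temperature, ratio read at 665/620 nm; DC50 fitted with a four-parameter logistic equation.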

T1 sequence (Q06187 whole entry): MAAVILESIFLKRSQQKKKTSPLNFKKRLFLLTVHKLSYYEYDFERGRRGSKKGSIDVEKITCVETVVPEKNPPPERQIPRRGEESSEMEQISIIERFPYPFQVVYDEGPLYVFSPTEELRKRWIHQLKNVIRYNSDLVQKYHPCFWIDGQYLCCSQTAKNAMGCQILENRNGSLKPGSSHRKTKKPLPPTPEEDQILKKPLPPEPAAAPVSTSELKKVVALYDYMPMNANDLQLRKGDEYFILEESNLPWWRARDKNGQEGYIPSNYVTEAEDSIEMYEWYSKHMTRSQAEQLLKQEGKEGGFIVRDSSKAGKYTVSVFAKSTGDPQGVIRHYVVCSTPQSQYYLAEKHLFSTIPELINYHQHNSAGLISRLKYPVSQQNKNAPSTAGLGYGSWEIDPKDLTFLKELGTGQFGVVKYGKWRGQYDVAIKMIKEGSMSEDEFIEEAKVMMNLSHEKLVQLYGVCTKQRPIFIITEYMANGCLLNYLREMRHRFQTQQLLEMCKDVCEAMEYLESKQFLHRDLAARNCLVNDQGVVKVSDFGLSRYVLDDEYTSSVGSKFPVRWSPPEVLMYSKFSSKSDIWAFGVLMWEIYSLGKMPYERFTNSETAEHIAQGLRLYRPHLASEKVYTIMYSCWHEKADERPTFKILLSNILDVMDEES

| SMILES | DC50 [nM] | Dmax [%] |
| --- | --- | --- |
| Cc1cc(-c2n[nH]c3ncc(-c4ccc(N5CCN(CC6CCN(c7ccc(N8CCC(=O)NC8=O)c(C)c7)CC6)CC5)cc4)cc23)ccc1[C@@H](C)NC(=O)c1noc(C(C)(C)C)n1 [Example 39, (R)-5-(tert-butyl)-N-(1-(4-(5-(4-(4-((1-(4-(2,4-dioxotetrahydropyrimidin-1(2H)-yl)-3-methylphenyl)piperidin-4-yl)methyl)piperazin-1-yl)phenyl)-1H-pyrazolo[3,4-b]pyridin-3-yl)-2-methylphenyl)ethyl)-1,2,4-oxadiazole-3-carboxamide] | 2.6 | – |
| Cc1cc(N2CCC(CCN3CCN(c4ccc(-c5cnc6[nH]nc(-c7ccc([C@@H](C)NC(=O)c8noc(C(C)(C)C)n8)c(C)c7)c6c5)cc4)CC3)CC2)ccc1C1CCC(=O)NC1=O (stereo partly drawn) [Example 168, 5-(tert-butyl)-N-((1R)-1-(4-(5-(4-(4-(2-(1-(4-(2,6-dioxopiperidin-3-yl)-3-methylphenyl)piperidin-4-yl)ethyl)piperazin-1-yl)phenyl)-1H-pyrazolo[3,4-b]pyridin-3-yl)-2-methylphenyl)ethyl)-1,2,4-oxadiazole-3-carboxamide] | 15.6 | – |
| Cc1cc(-c2n[nH]c3ncc(-c4ccc(N5CCN(CCn6nc(C)c(N7CCC(=O)NC7=O)c6C)CC5)cc4)cc23)ccc1[C@@H](C)NC(=O)c1noc(C(C)(C)C)n1 [Example 164, (R)-5-(tert-butyl)-N-(1-(4-(5-(4-(4-(2-(4-(2,4-dioxotetrahydropyrimidin-1(2H)-yl)-3,5-dimethyl-1H-pyrazol-1-yl)ethyl)piperazin-1-yl)phenyl)-1H-pyrazolo[3,4-b]pyridin-3-yl)-2-methylphenyl)ethyl)-1,2,4-oxadiazole-3-carboxamide] | 2.05 | – |
| Cc1cc(-c2n[nH]c3ncc(-c4ccc(N5CCN(CC6CCN(c7ccc(N8CCC(=O)NC8=O)cc7)CC6)CC5)cc4)cc23)ccc1[C@@H](C)NC(=O)c1nc(C(C)(C)C)no1 [Example 21, (R)-3-(tert-butyl)-N-(1-(4-(5-(4-(4-((1-(4-(2,4-dioxotetrahydropyrimidin-1(2H)-yl)phenyl)piperidin-4-yl)methyl)piperazin-1-yl)phenyl)-1H-pyrazolo[3,4-b]pyridin-3-yl)-2-methylphenyl)ethyl)-1,2,4-oxadiazole-5-carboxamide] | 8.62 | 97.5 |
| Cc1cc(-c2n[nH]c3ncc(-c4ccc(N5CCN(CCn6cc(N7CCC(=O)NC7=O)cn6)CC5)cc4)cc23)ccc1[C@@H](C)NC(=O)c1noc(C(C)(C)C)n1 [Example 143, (R)-5-(tert-butyl)-N-(1-(4-(5-(4-(4-(2-(4-(2,4-dioxotetrahydropyrimidin-1(2H)-yl)-1H-pyrazol-1-yl)ethyl)piperazin-1-yl)phenyl)-1H-pyrazolo[3,4-b]pyridin-3-yl)-2-methylphenyl)ethyl)-1,2,4-oxadiazole-3-carboxamide] | 18.8 | – |
| Cc1cc(-c2n[nH]c3ncc(-c4ccc(C5CCN(CCc6ccc([C@H]7CCC(=O)NC7=O)cc6)CC5)nc4)cc23)ccc1[C@@H](C)NC(=O)c1noc(C(C)(C)C)n1 [Example 152, 5-(tert-butyl)-N—((R)-1-(4-(5-(6-(1-(4-((R)-2,6-dioxopiperidin-3-yl)phenethyl)piperidin-4-yl)pyridin-3-yl)-1H-pyrazolo[3,4-b]pyridin-3-yl)-2-methylphenyl)ethyl)-1,2,4-oxadiazole-3-carboxamide] | 1.03 | – |
| COc1cc(N2CCC(=O)NC2=O)ccc1N1CCC(CN2CCN(c3ccc(-c4cnc5[nH]nc(-c6ccc([C@@H](C)NC(=O)c7noc(C(C)(C)C)n7)c(C)c6)c5c4)cc3)CC2)CC1 [Example 171, (R)-5-(tert-butyl)-N-(1-(4-(5-(4-(4-((1-(4-(2,4-dioxotetrahydropyrimidin-1(2H)-yl)-2-methoxyphenyl)piperidin-4-yl)methyl)piperazin-1-yl)phenyl)-1H-pyrazolo[3,4-b]pyridin-3-yl)-2-methylphenyl)ethyl)-1,2,4-oxadiazole-3-carboxamide] | 3.52 | – |
| Cc1cc(-c2n[nH]c3ncc(-c4ccc(N5CCN(CC6CCN(c7ccc(C8CCC(=O)NC8=O)cc7)C6)CC5)cc4)cc23)ccc1[C@@H](C)NC(=O)c1noc(C(C)(C)C)n1 (stereo partly drawn) [Example 191, 5-(tert-butyl)-N-((1R)-1-(4-(5-(4-(4-((1-(4-(2,6-dioxopiperidin-3-yl)phenyl)pyrrolidin-3-yl)methyl)piperazin-1-yl)phenyl)-1H-pyrazolo[3,4-b]pyridin-3-yl)-2-methylphenyl)ethyl)-1,2,4-oxadiazole-3-carboxamide] | 7.34 | – |
| Cc1cc(-c2n[nH]c3ncc(-c4ccc(N5CCN(C6CCC(c7ccc(C8CCC(=O)NC8=O)c(F)c7)C6)CC5)cc4)cc23)ccc1[C@@H](C)NC(=O)c1nc(C(C)(C)C)no1 (stereo partly drawn) [Example 216, 3-(tert-butyl)-N-((1R)-1-(4-(5-(4-(4-(3-(4-(2,6-dioxopiperidin-3-yl)-3-fluorophenyl)cyclopentyl)piperazin-1-yl)phenyl)-1H-pyrazolo[3,4-b]pyridin-3-yl)-2-methylphenyl)ethyl)-1,2,4-oxadiazole-5-carboxamide] | 10.5 | – |
| Cc1cc(-c2n[nH]c3ncc(-c4ccc(N5CCN(CCc6ccc(C7CCC(=O)NC7=O)c(F)c6)CC5)nc4)cc23)ccc1[C@@H](C)NC(=O)c1noc(C(C)(C)C)n1 (stereo partly drawn) [Example 199, 5-(tert-butyl)-N-((1R)-1-(4-(5-(6-(4-(4-(2,6-dioxopiperidin-3-yl)-3-fluorophenethyl)piperazin-1-yl)pyridin-3-yl)-1H-pyrazolo[3,4-b]pyridin-3-yl)-2-methylphenyl)ethyl)-1,2,4-oxadiazole-3-carboxamide] | 5.09 | – |
| Cc1cc(-c2n[nH]c3ncc(-c4ccc(N5CC6CN(CCc7ccc(C8CCC(=O)NC8=O)cc7)CC6C5)cn4)cc23)ccc1[C@@H](C)NC(=O)c1noc(C(C)(C)C)n1 (stereo partly drawn) [Example 174, 5-(tert-butyl)-N-((1R)-1-(4-(5-(5-(5-(4-(2,6-dioxopiperidin-3-yl)phenethyl)hexahydropyrrolo[3,4-c]pyrrol-2(1H)-yl)pyridin-2-yl)-1H-pyrazolo[3,4-b]pyridin-3-yl)-2-methylphenyl)ethyl)-1,2,4-oxadiazole-3-carboxamide] | 1.68 | – |
| Cc1cc(-c2n[nH]c3ncc(-c4ccc(N5CCN(CC6CCN(c7ccc(N8CCC(=O)NC8=O)cc7)CC6)CC5)c(F)c4)cc23)ccc1[C@@H](C)NC(=O)c1noc(C(C)(C)C)n1 [Example 97, (R)-5-(tert-butyl)-N-(1-(4-(5-(4-(4-((1-(4-(2,4-dioxotetrahydropyrimidin-1(2H)-yl)phenyl)piperidin-4-yl)methyl)piperazin-1-yl)-3-fluorophenyl)-1H-pyrazolo[3,4-b]pyridin-3-yl)-2-methylphenyl)ethyl)-1,2,4-oxadiazole-3-carboxamide] | 5.8 | – |
| Cc1cc(-c2n[nH]c3ncc(-c4ccc(N5CCN(CCc6ccc(N7CCC(=O)NC7=O)cn6)CC5)cc4)cc23)ccc1[C@@H](C)NC(=O)c1noc(C(C)(C)C)n1 [Example 194, (R)-5-(tert-butyl)-N-(1-(4-(5-(4-(4-(2-(5-(2,4-dioxotetrahydropyrimidin-1(2H)-yl)pyridin-2-yl)ethyl)piperazin-1-yl)phenyl)-1H-pyrazolo[3,4-b]pyridin-3-yl)-2-methylphenyl)ethyl)-1,2,4-oxadiazole-3-carboxamide] | 1.69 | – |
| Cc1cc(-c2n[nH]c3ncc(-c4ccc(N5CCN(CC6CCN(c7ccc(N8CCC(=O)NC8=O)c(C)c7)CC6)CC5)cc4)cc23)ccc1[C@@H](C)NC(=O)c1cc(C(C)(C)C)on1 [Example 172, (R)-5-(tert-butyl)-N-(1-(4-(5-(4-(4-((1-(4-(2,4-dioxotetrahydropyrimidin-1(2H)-yl)-3-methylphenyl)piperidin-4-yl)methyl)piperazin-1-yl)phenyl)-1H-pyrazolo[3,4-b]pyridin-3-yl)-2-methylphenyl)ethyl)isoxazole-3-carboxamide] | 20.8 | – |
| Cc1cc(-c2n[nH]c3ncc(-c4ccc(N5CCN(CC6CCN(c7ccc(N8CCC(=O)NC8=O)cc7)CC6)CC5)c(C)c4)cc23)ccc1[C@@H](C)NC(=O)c1noc(C(C)(C)C)n1 [Example 102, (R)-5-(tert-butyl)-N-(1-(4-(5-(4-(4-((1-(4-(2,4-dioxotetrahydropyrimidin-1(2H)-yl)phenyl)piperidin-4-yl)methyl)piperazin-1-yl)-3-methylphenyl)-1H-pyrazolo[3,4-b]pyridin-3-yl)-2-methylphenyl)ethyl)-1,2,4-oxadiazole-3-carboxamide] | 9.72 | – |
| Cc1cc(-c2n[nH]c3ncc(-c4ccc(N5CCN(C6CC(c7ccc([C@@H]8CCC(=O)NC8=O)cc7)C6)CC5)cc4)cc23)ccc1[C@@H](C)NC(=O)c1noc(C(C)(C)C)n1 (stereo partly drawn) [Example 208, 5-(tert-butyl)-N—((R)-1-(4-(5-(4-(4-((1S,3s)-3-(4-((R)-2,6-dioxopiperidin-3-yl)phenyl)cyclobutyl)piperazin-1-yl)phenyl)-1H-pyrazolo[3,4-b]pyridin-3-yl)-2-methylphenyl)ethyl)-1,2,4-oxadiazole-3-carboxamide] | 2.08 | – |
| Cc1cc(-c2n[nH]c3ncc(-c4ccc(N5CCN(CCc6ccc(C7CCC(=O)NC7=O)cc6)CC5)cc4)cc23)ccc1[C@@H](C)NC(=O)c1nc(C(C)(C)C)no1 (stereo partly drawn) [Example 33, 3-(tert-butyl)-N-((1R)-1-(4-(5-(4-(4-(4-(2,6-dioxopiperidin-3-yl)phenethyl)piperazin-1-yl)phenyl)-1H-pyrazolo[3,4-b]pyridin-3-yl)-2-methylphenyl)ethyl)-1,2,4-oxadiazole-5-carboxamide] | 3.85 | 99.4 |
| Cc1c([C@@H](C)NC(=O)c2noc(C(C)(C)C)n2)ccc(-c2n[nH]c3ncc(-c4ccc(N5CCN(CC6CCN(c7ccc(N8CCC(=O)NC8=O)cc7)CC6)CC5)cc4)cc23)c1F [Example 43, (R)-5-(tert-butyl)-N-(1-(4-(5-(4-(4-((1-(4-(2,4-dioxotetrahydropyrimidin-1(2H)-yl)phenyl)piperidin-4-yl)methyl)piperazin-1-yl)phenyl)-1H-pyrazolo[3,4-b]pyridin-3-yl)-3-fluoro-2-methylphenyl)ethyl)-1,2,4-oxadiazole-3-carboxamide] | 3.44 | – |

— patent publication US20230322761A1, “DEGRADATION OF BRUTON'S TYROSINE KINASE (BTK) BY CONJUGATION OF BTK INHIBITORS WITH E3 LIGASE LIGAND AND METHODS OF USE” (BEIGENE, LTD., priority 2020, published 2023)
